US8084630B2, “Process for the synthesis of ramelteon and its intermediates” (Teva Pharmaceutical Industries Ltd., priority 2007, dated 2011)
Values joined by “and” are separate entries in the source; they are usually repeats but may differ in a detail not shown here. Identical values can stand only once. Like-named read-outs stand apart in the source and are kept apart here.

Experiments:
[1] = Electrostatic charge measurement (shaking can, Faraday cup); format: physicochemical; conditions: for Average Charge Density of Batch: 3 samples; for Calculated Charge Density: shaken 90 seconds
Source text: Electrostatic Charge Measurement
Equipment and Accessories
Electrical Shaker—Scientific Industries type Vortex-2 Genie (including specific holder for the shaking cans).
Electrostatic Charge Meter—Monroe Electronics type Nanocoulomb Meter 253 (Faraday Cup).
Metal shaking can, S.S. 316, 30×50_mm.
Plastic shaking can, Perspex, 30×50_mm.
Description of Test Procedure
Calibration of the Electrostatic Charge Meter, prior the test according to manufacturer's procedure.
6 sample cans were used for each batch.
The shaking can placed in flat dish, the sample cam was opened and the powder was manually poured into the shaking can.
The shaking can was hermetically closed by plastic cover and mounted in the holder.
The electrical shaker was operated for 90 seconds, at maximum rate.
Subsequent of the shaking period the shaking can was moved into the flat dish, the cover was removed and the powder was manually poured into a glass can within the Faraday-Cup. Some of the powder was transferred by gravitational pouring (90-99%), the rest was transferred by manually push using wooden spatula (with strict adherence to tender motion).
The Faraday-Cup was closed and the charge reading (in meter display) was recorded. The described test stages were equally conducted on the selected 6 samples of each batch, as follow: 3 powder samples were shaken in metal can, 3 powder samples were shaken in plastic can. All the samples were shaken in each can for the same time period of 90 seconds.

[2] = Flowability, FT4 Powder Rheometer (REP+VFR); format: physicochemical; conditions: 25 mm blade, 25 ml vessel; for BFE (Basic Flow Energy = Energy Test 7): tipspeed 100 mm/s
Method: Instrument: FT4 Powder Rheometer (Freeman Technology Ltd).
Methodology: The blade was rotated and simultaneously moved axially into a powder sample whist axial force and rotational forces are measured.
The 25 mm blade and a 25 ml split borosilicate test vessel were used.
The Stability and Variable Flow Rate programs were run together by combining the two methods into one program (REP+VFR). The REP+VFR study is a combination of the seven conditioning and test cycles (blade tipspeed is 100 mm/s) at constant speed and the four conditioning and test cycles (blade tipspeed is 100, 70, 40 and 10 mm/s, respectively) with decreasing in blade speed. Definitions of the Flow Parameters:
Basic Flow Energy (BFE)=Energy Test 7, mJ
Stability index (SI)=Energy test 7/Energy Test 1

melatonin MT1 receptor = melatonin MT1 receptor (Homo sapiens, UniProt P48039); conditions: cited from earlier work
melatonin MT1 receptor, sequence (P48039 whole entry): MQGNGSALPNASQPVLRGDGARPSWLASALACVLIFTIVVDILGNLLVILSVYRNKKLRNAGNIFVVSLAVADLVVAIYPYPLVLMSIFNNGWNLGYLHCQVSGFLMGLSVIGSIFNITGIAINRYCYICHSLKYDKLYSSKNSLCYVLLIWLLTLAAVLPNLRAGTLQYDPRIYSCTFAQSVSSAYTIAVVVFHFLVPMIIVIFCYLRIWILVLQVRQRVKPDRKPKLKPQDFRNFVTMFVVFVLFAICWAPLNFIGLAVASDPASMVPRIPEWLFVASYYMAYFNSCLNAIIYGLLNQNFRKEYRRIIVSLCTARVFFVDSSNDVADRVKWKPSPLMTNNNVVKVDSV

melatonin MT2 receptor = biological target: T1, melatonin MT2 receptor (Homo sapiens, UniProt P49286); conditions: cited from earlier work
T1 sequence (P49286 1-362): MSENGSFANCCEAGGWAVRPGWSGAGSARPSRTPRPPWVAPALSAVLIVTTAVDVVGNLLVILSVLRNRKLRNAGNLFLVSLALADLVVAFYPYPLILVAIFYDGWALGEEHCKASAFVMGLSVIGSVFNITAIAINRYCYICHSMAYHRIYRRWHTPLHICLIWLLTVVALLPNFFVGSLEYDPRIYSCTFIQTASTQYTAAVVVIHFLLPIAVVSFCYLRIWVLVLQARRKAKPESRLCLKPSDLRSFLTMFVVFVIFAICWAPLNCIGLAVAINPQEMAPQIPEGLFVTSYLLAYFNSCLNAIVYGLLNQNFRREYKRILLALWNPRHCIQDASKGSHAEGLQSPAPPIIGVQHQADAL

MT3 receptor = biological target: T2, MT3 receptor (Homo sapiens, UniProt P16083); conditions: cited from earlier work
T2 sequence (P16083 1-231): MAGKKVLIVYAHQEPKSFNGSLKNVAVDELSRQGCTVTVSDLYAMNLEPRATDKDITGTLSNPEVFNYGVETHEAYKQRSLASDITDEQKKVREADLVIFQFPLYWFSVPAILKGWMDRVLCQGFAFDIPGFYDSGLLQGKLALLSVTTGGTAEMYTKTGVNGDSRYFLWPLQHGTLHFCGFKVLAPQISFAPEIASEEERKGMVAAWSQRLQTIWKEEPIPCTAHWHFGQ

[3] = cited from earlier work

SMILES: CCC(=O)NCC[C@@H]1CCc2ccc3c(c21)CCO3 [Ethyl Acetate, ramelteon]
- average charge density relative to sample obtained from Toluene ([1]; metal can): about 12 times
- Average Charge Density of Batch ([1]; metal can): 9.63 nC/gr
- Calculated Charge Density ([1]; metal can): 8.8 nC/gr and 10.1 nC/gr and 10.0 nC/gr
- average charge density relative to sample obtained from Toluene ([1]; plastic can): about 15 times
- Average Charge Density of Batch ([1]; plastic can): 10.82 nC/gr
- Calculated Charge Density ([1]; plastic can): 10.1 nC/gr and 14.05 nC/gr and 8.3 nC/gr
- SI (Stability index = Energy test 7/Energy Test 1) [2]: 0.622
- BFE (Basic Flow Energy = Energy Test 7) ([2]; listed as Sample from Ethylacetate): 181 mJ

SMILES: CCC(=O)NCC[C@@H]1CCc2ccc3c(c21)CCO3 [Ramelteon, (S)—N-[2-(1,6,7,8-tetrahydro-2H-indeno-[5,4-b]furan-8-yl)ethyl]propionamide]
- affinity for melatonin MT1 receptor (melatonin MT1 receptor): high affinity
- affinity for melatonin MT2 receptor (melatonin MT2 receptor): high affinity
- selectivity over the MT3 receptor (MT3 receptor): selectivity over the MT3 receptor
- solubility ([3]; 1-octanol): freely soluble
- solubility ([3]; DMSO): freely soluble
- solubility ([3]; aqueous buffer): highly soluble
- solubility ([3]; ethanol): freely soluble
- solubility ([3]; methanol): freely soluble
- solubility ([3]; water): highly soluble

SMILES: CCC(=O)NCC[C@@H]1CCc2ccc3c(c21)CCO3 [Toluene, ramelteon]
- Average Charge Density of Batch ([1]; metal can): 0.82 nC/gr
- Average Charge Density of Batch ([1]; plastic can): 0.72 nC/gr
- Calculated Charge Density ([1]; plastic can): 0.85 nC/gr and 0.6 nC/gr and 0.7 nC/gr
- BFE (Basic Flow Energy = Energy Test 7) ([2]; listed as Sample from Toluene): 92.5 mJ
- SI (Stability index = Energy test 7/Energy Test 1) ([2]; listed as Sample from Toluene): 1.02
